{
  "source": "paper PMC3558502",
  "about": "“Acaricide, Fungicide and Drug Interactions in Honey Bees (Apis mellifera)” (PLoS ONE, 2013)",
  "key": {"[1]": {"test_system": "honey bees (Apis mellifera)", "assay": "Lethal dose bioassay: topical sublethal pre-treatment (acaricide, fungicide or enzyme inhibitor), then topical acaricide dose series, 2009", "conditions": "for interactive effect between pre-treatment and acaricide toxicity (in words): 2009 topical pre-treatments, partner named in the value; for LD10: from fitted dose-response lines, control pre-treatment, 2009 (Table S1)", "method": "Bees were first treated with a sublethal dose of either an acaricide, a fungicide, an antimicrobial drug, or an enzyme inhibitor. Bees were then treated with a range of lethal doses of an acaricide to estimate the dose-response curve. […] We tested 25 of the 6×6 possible acaricide-acaricide combinations, 24 of the 6×5 fungicide-acaricide combinations, 15 of the 6×3 antimicrobial-acaricide combinations and 9 of the 6×3 enzyme inhibitor-acaricide combinations. […] The fungicides propiconazole, fenbuconazole, metconazole and myclobutanil were tested in combination with a single acaricide, tau-fluvalinate.\n(§1) Frames of late-stage brood were collected from these colonies and placed in a dark, humid incubator (Darwin Chambers Co., St. Louis, MO, model H024) at 34°C. Newly emerged adults were brushed from frames daily into screened wooden cages (21×14×12 cm) and weighed as a group to estimate the number of bees. Each cohort of 200–800 bees was provisioned with 1∶1 (w/w) granulated sugar dissolved in water and held for 3–4 days in the incubator.\nEach treatment series was conducted using 3–4 day-old adult worker bees divided into 8–13 subgroups of 20 bees each. Bees were narcotized with carbon dioxide and each subgroup was placed in a separate wax-coated paper cup (177 cm^3; Solo S306, Highland Park, IL) covered with cotton cheesecloth and secured with two rubber bands. A maximum sublethal pre-treatment of an acaricide, fungicide, enzyme inhibitor, or solvent control, was then applied to bees in all subgroups. […] Sublethal doses used as pre-treatment for acaricides were determined in preliminary bioassays or previous studies and corresponded to doses less than or near the LD10 values determined in the current experiment. […] All doses were delivered topically in 1 µl of acetone and applied to the thoracic notum using a 50 µl syringe fitted in a repeating dispenser (Hamilton PB-600, Reno, NV). A control pre-treatment consisting of 1 µl of pure acetone was also included.\n(§2) Groups of pre-treated bees were allowed to recover for 1 h to minimize mortality due to extended carbon dioxide anaesthetization. Each subgroup of approximately 20 bees, of the 8–13 dose-groups in the bioassay, was then anaesthetized again and treated topically with either an acetone solvent control or one of a range of 7–12 acaricide doses, including doses eliciting 0% and 100% mortality, and at least three doses causing intermediate mortality. After treatment sucrose water was provided to groups of treated bees through a punctured 1.5 ml microcentrifuge tube following dosing, and bees were returned to the 34°C incubator. […] Immobile bees were scored as dead. […] At least three replicate treatment series were performed for each combination of pre-treatment and acaricide. Separately diluted acaricide dose series and bees taken from different colonies were used for each replicate treatment.\n(§3) Lines were fitted to dose-mortality data on a log-probit scale for each pretreatment-acaricide combination using ‘glm’ in the R statistical package. […] Interactive effects between acaricides and the various pre-treatments were determined with pairwise tests comparing the dose-response lines for bees receiving pre-treatments with bees receiving a control pre-treatment using a test analogous to ANCOVA [26]. The full model, which includes the dose of acaricide as a covariate, pre-treatment as a categorical factor and the interaction between acaricide dose and pre-treatment, was compared with two simplified models (Figure 3). A process of model simplification was undertaken in which the explanatory power of model terms was assessed by reference to the likelihood ratio [38]. The first simplified model lacks the interaction term and tests the interaction between pre-treatment and acaricide dose, essentially testing for differences in the slope of the two dose-response lines (also known as a test of the “hypothesis of parallelism” [26])."}, "[2]": {"test_system": "honey bees (Apis mellifera)", "assay": "Lethal dose bioassay: antimicrobial drugs fed in sucrose syrup, then topical acaricide dose series, 2010", "conditions": "for interactive effect between antimicrobial pre-treatment and acaricide toxicity (in words): 2010 oral pre-treatments, partner named in the value", "method": "as §1, §2, §3"}, "[3]": {"test_system": "honey bees (Apis mellifera)", "assay": "Lethal dose bioassay: tau-fluvalinate after PBO or SBI fungicide pre-treatment at 0.1, 1 or 10 nmol per bee, 2010", "format": "in vivo", "from_the_text": "Acetone was also applied as a pre-treatment control.\nImmobile bees were scored as dead."}, "[4]": {"test_system": "honey bees (Apis mellifera)", "conditions": "study conducted in 2008 using an identical protocol; cited from earlier work"}, "Apis mellifera": {"test_system": "Apis mellifera", "conditions": "cited from earlier work"}, "honey bees": {"test_system": "honey bees", "assay": "Estimated daily exposure and margin of safety of acaricide formulations", "set-up": "species or system Apis mellifera", "conditions": "LD10 divided by estimated daily dose", "from_the_text": "High sublethal doses were deliberately chosen as pre-treatments to make the magnitude of any interactive effect between the pre-treatment and acaricide as large as possible. However, to determine the hazard posed by acaricide interactions in bee hives, the actual exposure bees receive when treated with formulated acaricides must be considered. […] The LD10 can be determined from the fitted dose response lines (Table S1). The daily dose can be estimated by first determining the amount of active ingredient present in each acaricide formulation, correcting this value by the amount of active ingredient available for uptake by the bees (e.g. 10% of the total acaricide content in strip formulations is taken up by bees, [50]) and dividing this quantity by the number of days the acaricide formulation is present in the hive. The estimated daily dose calculated in this way can be validated using published pesticide residue data, [51]."}, "[5]": {"conditions": "tau-fluvalinate topical dose series after acetone control pre-treatment"}},
  "note": "“Also recorded” adds a separate entry of the source. Structures can show the parent of a compound that is named as a salt. Where two headings read alike, the source gives them in different places.",
  "data": [
    {"smiles": "CCOC(=O)/C=C\\C(=O)OCC", "note": "[DEM, diethyl maleate]", "values": [
      {"measurement": "interactive effect between pre-treatment and acaricide toxicity (in words)", "setting": "[1]", "result": "did not interact with any acaricide tested"}
    ]},
    {"smiles": "CC(C)[C@@H](Nc1ccc(C(F)(F)F)cc1Cl)C(=O)OC(C#N)c1cccc(Oc2ccccc2)c1", "note": "(stereo partly shown) [tau-fluvalinate]", "values": [
      {"measurement": "LD50 of the acaricide", "setting": "[1]; 2009, topical, adult workers, pre-treatment: control, 1 µl acetone", "result": 19.8, "unit": "µg per bee"},
      {"measurement": "increase in toxicity of tau-fluvalinate", "setting": "[1]; 2009 experiments, prochloraz pre-treatment", "result": "~2000", "unit": "fold"},
      {"measurement": "interactive effect between pre-treatment and acaricide toxicity (in words)", "setting": "[1]", "result": "tau-fluvalinate toxicity was transitively increased when thymol was applied as a pre-treatment; also recorded: chlorothalonil increased the toxicity of both thymol and tau-fluvalinate; also recorded: Pyraclostrobin and boscalid applied together in a blend like Pristine moderately increased the toxicity of tau-fluvalinate"},
      {"measurement": "increase in toxicity of tau-fluvalinate", "setting": "[1]; amitraz pre-treatment", "result": 5, "unit": "fold"},
      {"measurement": "increase in toxicity of tau-fluvalinate", "setting": "[1]; fenpyroximate pre-treatment", "result": 8, "unit": "fold"},
      {"measurement": "LD10", "setting": "[1]", "result": 3.08, "unit": "µg/bee"},
      {"measurement": "LD50 of the acaricide", "setting": "[2]; 2010, topical acaricide, bees fed control 1:1 sucrose syrup", "result": 9.2, "unit": "µg per bee"},
      {"measurement": "interactive effect between antimicrobial pre-treatment and acaricide toxicity (in words)", "setting": "[2]", "result": "pretreating bees with oxytetracycline had no significant effect on the LD50 of tau-fluvalinate"},
      {"measurement": "interactive effect between SBI fungicide pre-treatment and tau-fluvalinate toxicity (in words)", "setting": "[3]; 2010, SBI fungicides", "result": "an antagonistic interaction was observed at the lowest fungicide doses (0.1 nmol or approximately 0.03 µg per bee)"},
      {"measurement": "LD50 for tau-fluvalinate", "setting": "[3]; 2010, topical, pre-treatment: control (acetone)", "result": 9.0, "unit": "µg per bee"},
      {"measurement": "interaction between tau-fluvalinate and PBO", "setting": "[3]; PBO 10 nmol dose level", "result": 5.8, "unit": "fold"},
      {"measurement": "increase in toxicity of tau-fluvalinate", "setting": "[3]; pre-treated with any of the 5 fungicides or PBO at the 1 nmol dose", "result": "1.4 to 2.3", "unit": "fold"},
      {"measurement": "increase in toxicity of tau-fluvalinate", "setting": "[3]; pre-treated with any of the 5 fungicides or PBO at the 10 nmol dose", "result": "12 to 74", "unit": "fold"},
      {"measurement": "dose-response line intercept ± SE", "setting": "[3]; [5]", "result": "-2.72 ± 0.24"},
      {"measurement": "dose-response line slope ± SE", "setting": "[3]; [5]", "result": "2.85 ± 0.26"},
      {"measurement": "LD50 for tau-fluvalinate", "setting": "[4]", "result": 6.75, "unit": "µg per bee"}
    ]},
    {"smiles": "O=C(Nc1ccccc1-c1ccc(Cl)cc1)c1cccnc1Cl", "note": "[boscalid]", "values": [
      {"measurement": "interactive effect between pre-treatment and acaricide toxicity (in words)", "setting": "[1]", "result": "did not interact with any acaricide tested"}
    ]},
    {"smiles": "O=C(O)C(=O)O", "note": "[oxalic acid]", "values": [
      {"measurement": "LD10", "setting": "Apis mellifera", "result": 176.7, "unit": "c µg/bee"}
    ]},
    {"smiles": "Cc1ccc(/N=C/N(C)/C=N/c2ccc(C)cc2C)c(C)c1", "note": "[amitraz]", "values": [
      {"measurement": "interactive effect between pre-treatment and acaricide toxicity (in words)", "setting": "[1]", "result": "toxicity of amitraz was unchanged when bees were pre-treated with tau-fluvalinate; also recorded: oxalic acid pre-treatment reduced the toxicity of amitraz nearly four-fold"},
      {"measurement": "LD10", "setting": "[1]", "result": 0.92, "unit": "µg/bee"},
      {"measurement": "interactive effect between antimicrobial pre-treatment and acaricide toxicity (in words)", "setting": "[2]", "result": "this combination had no effect on acute mortality"},
      {"measurement": "margin of safety of acaricide formulations", "setting": "honey bees", "result": "2.0 to 7.8", "unit": "fold"}
    ]},
    {"smiles": "CC[C@H]1OC(=O)C[C@@H](O)[C@H](C)[C@@H](O[C@@H]2O[C@H](C)[C@@H](O[C@H]3C[C@@](C)(O)[C@@H](O)[C@H](C)O3)[C@H](N(C)C)[C@H]2O)[C@@H](CC=O)C[C@@H](C)C(=O)/C=C/C(C)=C/[C@@H]1CO[C@@H]1O[C@H](C)[C@@H](O)[C@@H](OC)[C@H]1OC", "note": "[tylosin]", "values": [
      {"measurement": "interactive effect between antimicrobial pre-treatment and acaricide toxicity (in words)", "setting": "[2]", "result": "did not interact with any acaricide tested"}
    ]},
    {"smiles": "Cc1ccc(C(C)C)c(O)c1", "note": "[thymol]", "values": [
      {"measurement": "margin of safety of acaricide formulations", "setting": "honey bees", "result": "2.0 to 7.8", "unit": "fold"}
    ]}
  ]
}
